From patent US20120087864A1, “METHOD FOR DIAGNOSING AND/OR EVALUATING RETINAL DISEASE” (R-TECH UENO, LTD., priority 2010, published 2012)
Values joined by “and” are separate entries in the source; they are usually repeats but may differ in a detail not shown here. Identical values can stand only once. Marks after values point to notes of the source that are not given here.

Key:
Type in all cases: in vivo, human
[1] = system: patient with retinal pigmentosa; assay: NEI VFQ-25 (Compo 8) vision-related QOL questionnaire; conditions: 0.15% solution twice a day, after 24 weeks minus 0 week
Method: (§1) One drop or two drops of isopropyl unoprostone 0.15 w/v % ophthalmic solution per one time was administered to each eye of patient with retinal pigmentosa daily for 24 weeks, and the following items were examined. 112 patients participated this test.
Change in The 25-Item National Eye Institute Visual Function Questionnaire (NEI VFQ-25) Compo 8:
Original NEI VFQ-25 (The 25-item National Eye Institute Visual Function Questionnaire) for evaluation of vision-related QOL of a patient is constituted from visual functions in various living scenes, and 12 subscales (questions of 25 items) for measurement of the degree of restrictions of vision-related physical, mental and social living scenes. In the present test, a questionnaire of Compo 8 constituted from 8 subscales with exception of general health, driving, peripheral vision and ocular pain among the subscales was used. At the time of completion of the pre-observation period (0 week) and completion of the treatment (24 weeks), a change value of score (the value after 24 weeks minus the value at 0 week) was evaluated.

[2] = system: patient with retinal pigmentosa; assay: Humphrey visual field test, retinal sensitivity of central 2 degrees (4 points); conditions: 0.15% solution twice a day
Method: as §1
Change in retinal sensitivity of central 2 degrees (4 points) through Humphrey visual field test
(§2) The above ophthalmic solution of Formulation Example 1 was used as the test drug.
(§3) (1) Dosage regimen: Instillation twice* a day, one drop of a first solution was instilled at the time of first instillation and, after 5 minute, one drop of a second solution was instilled into both eyes.
Between-group comparison of the change value of Humphrey central 4 points retinal sensitivity was made every measurement time point.

[3] = system: patient with retinal pigmentosa; assay: Humphrey visual field test (SITA-Standard, central 10-2) retinal sensitivity (MD value), 24-week placebo-controlled clinical test; conditions: 0.15% solution twice a day; for change value of Humphrey central 10-2 retina sensitivity (MD value): change from before treatment
Method: as §1
Change in retinal sensitivity through Humphrey visual field test (SITA-Standard, 10-2)
as §2, §3
Since subjective symptoms depend on one eye having better visual function than the other, when both eyes satisfy the all selection criteria, the eye having better desimal visual acuity was adopted as the eye for evaluation of efficacy. When both eyes have the same desimal visual acuity, right eye was adopted as the eye for evaluation of efficacy
Between-group comparison of the average of Humphrey central 10-2 retina sensitivity (MD value) was made every measurement time point.
Between-group comparison of the change value of Humphrey central 10-2 retina sensitivity (MD value) was made every measurement time point.

[4] = system: patient with retinal pigmentosa; assay: Safety evaluation: side effects until completion of medication (24 weeks)
From the text: Safety evaluation (1. Adverse event, 2. Side effect, 3. Ophthalmologic examination, Vital signs, Clinical examination result)
A list of items of the side effect confirmed until completion of medication (24 weeks) in Test Example 1, and the number of appearance cases and the appearance ratio of the side effect of each group are shown in Table 10.

[5] = system: patient with retinal pigmentosa; assay: MP-1 microperimeter retinal sensitivity of central 2 degrees (4 points); conditions: 0.15% solution twice a day; for average retinal sensitivity by MP-1 in central 2 degrees (4 points), change value: change from 0 week
Method: as §1
Using an combined equipment having a retinal camera and an automatic perimeter, retinal sensitivity of measurement points set preliminarily on the eyeground retina was automatically measured. The feature of MP-1 is that tracking can be automatically performed according to the eye movement, and retinal sensitivity of a local part of the eyeground can be accurately measured by correcting a gap detected during a test. Also, it is possible to serially measure retinal sensitivity at the same site of the eyeground since a test can be performed at the same measurement point of retina as that of the previous test.
Change in retinal sensitivity of central 2 degrees (4 points) through MP-1 microperimeter
The value of the average retinal sensitivity by MP-1 in central 2 degrees (4 points) changed from the value at the time of completion of the pre-observation period (0 week) at each measurement time point (time of hospital visiting of subject) was calculated in each eye.
The retinal sensitivity by MP-1 central 2 degrees (4 points) was measured at a pre-observation period, after 4 weeks, after 8 weeks, after 16 weeks and after 24 weeks. It is estimated that variation (error) due to seasonal variation during measuring for 24 weeks may arise. For the purpose of absolutely evaluating the effect of the drug, in order to grasp an overview including negation of both improvement and aggravation, between-group comparison was made by adding up of a difference (change value) with the pre-observation period in four measurements.

[6] = one drop per time group, after 4 weeks
[7] = one drop per time group, after 8 weeks
[8] = one drop per time group, after 16 weeks
[9] = one drop per time group, after 24 weeks
[10] = two drops per time group, after 4 weeks
[11] = two drops per time group, after 8 weeks
[12] = two drops per time group, after 16 weeks
[13] = two drops per time group, after 24 weeks

CCCCCCCC(=O)CC[C@@H]1[C@@H](C/C=C\CCCC(=O)OC(C)C)[C@@H](O)C[C@H]1O [isopropyl unoprostone, (+)-isopropyl (Z)-7-[(1R,2R,3R,5S)-3,5-dihydroxy-2-(3-oxodecyl)cyclopentyl]hept-5-enoate]
change value of VFQ-25 subscale "vision-related social function" ([1]; one drop per time group): −2.3 | change value of VFQ-25 summary score ([1]; one drop per time group): −1.1 | change value of VFQ-25 subscale "vision-related social function" ([1]; two drops per time group): 6.6*^† | change value of VFQ-25 summary score ([1]; two drops per time group): 2.69^† | change value of Humphrey central 4 points retinal sensitivity [2, 6]: −0.178 | change value of Humphrey central 4 points retinal sensitivity [2, 7]: 0.158 | change value of Humphrey central 4 points retinal sensitivity [2, 8]: 0.336 | change value of Humphrey central 4 points retinal sensitivity [2, 9]: 0.334 | change value of Humphrey central 4 points retinal sensitivity [2, 10]: 0.714 | change value of Humphrey central 4 points retinal sensitivity [2, 11]: 0.821 | change value of Humphrey central 4 points retinal sensitivity [2, 12]: 1.253*^†1 | change value of Humphrey central 4 points retinal sensitivity [2, 13]: 2.009 and 2.009*^†1†2 | average of Humphrey central 10-2 retina sensitivity (MD value) ([3]; one drop per time group, 0 week (before treatment)): −14.116 dB | average of Humphrey central 10-2 retina sensitivity (MD value) [3, 6]: −13.952 dB | average of Humphrey central 10-2 retina sensitivity (MD value) [3, 7]: −14.074 dB | change value of Humphrey central 10-2 retina sensitivity (MD value) [3, 7]: 0.042 dB | average of Humphrey central 10-2 retina sensitivity (MD value) [3, 8]: −13.768 dB | change value of Humphrey central 10-2 retina sensitivity (MD value) [3, 8]: 0.136 dB | average of Humphrey central 10-2 retina sensitivity (MD value) [3, 9]: −13.699 dB | change value of Humphrey central 10-2 retina sensitivity (MD value) [3, 9]: 0.417 dB | average of Humphrey central 10-2 retina sensitivity (MD value) ([3]; two drops per time group, 0 week (before treatment)): −18.376 dB | average of Humphrey central 10-2 retina sensitivity (MD value) [3, 10]: −17.671† dB | change value of Humphrey central 10-2 retina sensitivity (MD value) [3, 10]: 0.831 dB | average of Humphrey central 10-2 retina sensitivity (MD value) [3, 11]: −17.810 dB | change value of Humphrey central 10-2 retina sensitivity (MD value) [3, 11]: 0.696* dB | average of Humphrey central 10-2 retina sensitivity (MD value) [3, 12]: −17.341† dB | change value of Humphrey central 10-2 retina sensitivity (MD value) [3, 12]: 0.777 dB | average of Humphrey central 10-2 retina sensitivity (MD value) [3, 13]: −17.411† dB | change value of Humphrey central 10-2 retina sensitivity (MD value) [3, 13]: 0.891 dB | serious side effect ([4]; any group (one drop and two drops per time)): no serious side effect | All side effects, number of appearance cases ([4]; one drop per time (39 cases)): 28 (71.8%) cases (%) and 28 (71.8) cases (%) | Bloodshot eyes, number of appearance cases ([4]; one drop per time (39 cases)): 1 (2.6) cases (%) | Bloodshot, number of appearance cases ([4]; one drop per time (39 cases)): 0 (0.0) cases (%) | Dry eye, number of appearance cases ([4]; one drop per time (39 cases)): 1 (2.6) cases (%) | Eye abnormality, number of appearance cases ([4]; one drop per time (39 cases)): 0 (0.0) cases (%) | Eye irritation, number of appearance cases ([4]; one drop per time (39 cases)): 9 (23.1) cases (%) | Eye pruritus, number of appearance cases ([4]; one drop per time (39 cases)): 1 (2.6) cases (%) | Eye swelling, number of appearance cases ([4]; one drop per time (39 cases)): 1 (2.6) cases (%) | Foreign body sensation, number of appearance cases ([4]; one drop per time (39 cases)): 1 (2.6) cases (%) | Hypertrichosis, number of appearance cases ([4]; one drop per time (39 cases)): 0 (0.0) cases (%) | Irritation of applied site, number of appearance cases ([4]; one drop per time (39 cases)): 13 (33.3) cases (%) | Macular edema, number of appearance cases ([4]; one drop per time (39 cases)): 1 (2.6) cases (%) | Macular hole, number of appearance cases ([4]; one drop per time (39 cases)): 0 (0.0) cases (%) | Punctate keratitis, number of appearance cases ([4]; one drop per time (39 cases)): 4 (10.3) cases (%) | All side effects, number of appearance cases ([4]; two drops per time (38 cases)): 21 (55.3%) cases (%) and 21 (55.3) cases (%) | Bloodshot eyes, number of appearance cases ([4]; two drops per time (38 cases)): 0 (0.0) cases (%) | Bloodshot, number of appearance cases ([4]; two drops per time (38 cases)): 1 (2.6) cases (%) | Dry eye, number of appearance cases ([4]; two drops per time (38 cases)): 0 (0.0) cases (%) | Eye abnormality, number of appearance cases ([4]; two drops per time (38 cases)): 1 (2.6) cases (%) | Eye irritation, number of appearance cases ([4]; two drops per time (38 cases)): 4 (10.5) cases (%) | Eye pruritus, number of appearance cases ([4]; two drops per time (38 cases)): 1 (2.6) cases (%) | Eye swelling, number of appearance cases ([4]; two drops per time (38 cases)): 0 (0.0) cases (%) | Foreign body sensation, number of appearance cases ([4]; two drops per time (38 cases)): 0 (0.0) cases (%) | Hypertrichosis, number of appearance cases ([4]; two drops per time (38 cases)): 1 (2.6) cases (%) | Irritation of applied site, number of appearance cases ([4]; two drops per time (38 cases)): 13 (34.2) cases (%) | Macular edema, number of appearance cases ([4]; two drops per time (38 cases)): 0 (0.0) cases (%) | Macular hole, number of appearance cases ([4]; two drops per time (38 cases)): 0 (0.0) cases (%) | Punctate keratitis, number of appearance cases ([4]; two drops per time (38 cases)): 4 (10.5) cases (%) | MP-1 central 2 degrees (4 points) average retinal sensitivity: aggravation by 4 dB or more, number of cases (%) [5, 9]: 6 (15.8%) cases (%) | MP-1 central 2 degrees (4 points) average retinal sensitivity: improvement by 4 dB or more, number of cases (%) [5, 9]: 3 (7.9%) cases (%) | MP-1 central 2 degrees (4 points) average retinal sensitivity: no change, number of cases (%) [5, 9]: 29 (76.3%) cases (%) | average retinal sensitivity by MP-1 in central 2 degrees (4 points), change value [5, 10]: 0.5 dB | average retinal sensitivity by MP-1 in central 2 degrees (4 points), change value [5, 11]: 1.013 dB | average retinal sensitivity by MP-1 in central 2 degrees (4 points), change value [5, 12]: 0.713 dB | MP-1 central 2 degrees (4 points) average retinal sensitivity: aggravation by 4 dB or more, number of cases (%) [5, 13]: 1 (2.6%) cases (%) and 1 (2.9%)* cases (%) | MP-1 central 2 degrees (4 points) average retinal sensitivity: improvement by 4 dB or more, number of cases (%) [5, 13]: 6 (17.1%) cases (%) | MP-1 central 2 degrees (4 points) average retinal sensitivity: no change, number of cases (%) [5, 13]: 28 (80.0%) cases (%) | average retinal sensitivity by MP-1 in central 2 degrees (4 points), change value [5, 13]: 1.1^† dB | average retinal sensitivity by MP-1 in central 2 degrees (4 points), comparison of change value ([5]; two drops per time group, change values of four measurements (4, 8, 16, 24 weeks) added up): 0.826* dB
